The record followed here is patent publication US20260200920A1, “SUBSTITUTED AMINOPYRIDINE COMPOUNDS FOR USE AS AKT1 INHIBITORS” (Atavistik Bio, Inc., priority 2023, published 2026).

Experiment [1] deals with T1, human recombinant kinase full-length wildtype AKT1 (Homo sapiens, UniProt P31749).
T1 construct: Purified human recombinant kinase full-length wildtype AKT1 was expressed in insect cells; made in house; host or cells: insect cells
The experiment in a line: AKT1 kinase assay (wildtype, TR-FRET, Lance). It counts as biochemical. To be noted: 0.6 nM wildtype AKT1, 50 nM Ulight-CREBtide, either 50 μM ATP or 2 mM ATP, 60 min at RT. As for the experimental part:
AKT1 kinase assay: Inhibitory effects of compounds on wildtype AKT1 were undertaken in a 10-pt dose response kinase activity assay measuring phospho-peptide product formation based on TR-FRET signal as described in the following paragraph.
(§1) Purified human recombinant kinase full-length wildtype AKT1 was expressed in insect cells and activated in vitro by PDPK1. Ulight™-CREBtide (PerkinElmer, catalog number TRF0107) was used as the peptide substrate. The reaction buffer consisted of 50 mM HEPES pH 7.5, 10 mM MgCl2, 0.01% Triton X-100, 0.01% BSA, 2 mM DTT, 0.6 nM AKT1,50 nM Ulight™-CREBtide and either 50 μM ATP or 2 mM ATP. The compound solution was prepared as 10 mM DMSO stock. For the assay, a 1:3 serial dilution 10-pt dose response of test compounds, in duplicate, for each concentration were dispensed into a 384-well plate (Corning, catalog number 4513). Final DMSO concentration in the assay was 1%. The enzyme mixture (5 μL, 1.2 nM) were added and the mixture was incubated for 15 min at RT prior to the start of the kinase reaction by the addition of 5 μL substrate mixture (100 nM Ulight™-CREBtide). The reaction was stopped after 60 min of incubation at RT by the addition of 10 μL of Detection Mix (PerkinElmer, #CR97-100) consisting of Europium-anti-phospho-CREB (Ser133) (Perkin Elmer, catalog number TRF0200). Incubation with the detection mix for a further 60 min allowed binding of antibody to the phospho-Ulight™ CREBtide. The fluorescence emissions at 620 nm and 665 nm after excitation at 350 nm was measured using Envision reader. The ratio of the emissions at 665 nm and at 620 nm provided the measure for the amount of phosphorylated CREBtide product of AKT1 kinase activity. To determine the IC50 values, the data was normalized (enzyme reaction without inhibitor=0% inhibition, all other assay components but no enzyme=100% inhibition) and IC50 values were calculated by a 4-parameter fit using an in-house developed protocol.
The symbol +++ represents an IC50 value <20 μM; the symbol ++ represents an IC50 value from ≥20 μM to 80 μM.
On the technique in general: TR-FRET usually uses a lanthanide donor and a delayed reading to cut background.

Experiment [2] addresses T2, human recombinant kinase full-length AKT1 E17K (Homo sapiens, UniProt P31749, E17K).
T2 construct: Purified human recombinant kinase full-length AKT1 E17K was expressed in insect cells; made in house; host or cells: insect cells
The experiment in a line: AKT1 E17K kinase assay (TR-FRET, Lance). It counts as biochemical. To be noted: 0.6 nM AKT1 E17K, 50 nM Ulight-CREBtide, either 50 μM ATP or 2 mM ATP, 60 min at RT. As for the experimental part: AKT1 E17K kinase assay: Inhibitory effects of compounds on AKT1 E17K were undertaken in a 10-pt dose response kinase activity assay measuring phospho-peptide product formation based on TR-FRET signal as described in the following paragraph.
as §1, with “full-length” for “full-length wildtype”, “AKT1 E17K” for “AKT1”, “AKT1 E17K, 50” for “AKT1,50”, “1.3” for “1:3”
Table 9 assigns each compound a code for potency in the AKT1 E 17K kinase assay: A, B, or C. According to the code, A represents an IC50 value <500 nM; B represents an IC50 value from ≥500 nM to <2000 nM; and C represents an IC50 value ≥2000 nM.

T1 sequence (P31749 whole entry): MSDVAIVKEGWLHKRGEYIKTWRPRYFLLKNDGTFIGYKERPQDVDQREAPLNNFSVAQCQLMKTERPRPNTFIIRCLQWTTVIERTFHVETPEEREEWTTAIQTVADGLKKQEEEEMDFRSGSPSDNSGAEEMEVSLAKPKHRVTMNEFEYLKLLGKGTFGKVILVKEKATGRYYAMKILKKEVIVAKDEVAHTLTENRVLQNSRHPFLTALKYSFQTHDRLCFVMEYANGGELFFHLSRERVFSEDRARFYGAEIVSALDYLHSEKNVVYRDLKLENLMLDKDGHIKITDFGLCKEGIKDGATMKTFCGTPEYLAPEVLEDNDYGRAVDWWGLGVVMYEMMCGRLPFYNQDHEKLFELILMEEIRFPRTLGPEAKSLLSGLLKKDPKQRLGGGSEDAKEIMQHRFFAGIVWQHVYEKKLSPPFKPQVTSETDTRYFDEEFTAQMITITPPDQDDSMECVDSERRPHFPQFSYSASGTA
T2 sequence (P31749 whole entry E17K): as the sequence (P31749 whole entry) above, with E17K counted along it

With `CC(C)(C)c1ccc2nc(-c3cccnc3N)n(-c3ccc(NC(=O)[C@H]4CC[C@H](C(=O)O)CC4)nc3)c2c1` [Compound I-117, (1r,4r)-4-((5-(2-(2-aminopyridin-3-yl)-6-(tert-butyl)-1H-benzo[d]imidazol-1-yl)pyridin-2-yl)carbamoyl)cyclohexane-1-carboxylic acid], the IC50 in experiment [1] was below 20 µM; in experiment [2], at least 2 µM.
For the molecule `Nc1ncccc1-c1nc2ccc(-c3ccccc3)nc2n1-c1ccc(NC(=O)[C@H]2CC[C@H](C(=O)O)CC2)nc1` [Compound I-10, (1r,4r)-4-((5-(2-(2-aminopyridin-3-yl)-5-phenyl-3H-imidazo[4,5-b]pyridin-3-yl)pyridin-2-yl)carbamoyl)cyclohexane-1-carboxylic acid], the IC50 in experiment [1] is below 20 µM; in experiment [2], below 0.5 µM.
In the same order, the values of `Cc1cc(NC(=O)[C@H]2CC[C@H](C(=O)O)CC2)ccc1-n1c(-c2cccnc2N)nc2ccc(-c3ccccc3)nc21` [Compound I-102, (1r,4r)-4-((4-(2-(2-aminopyridin-3-yl)-5-phenyl-3H-imidazo[4,5-b]pyridin-3-yl)-3-methylphenyl)carbamoyl)cyclohexane-1-carboxylic acid] are below 20 µM and 0.5 to 2 µM.
On to `Cc1nc(-n2c(-c3cccnc3N)nc3ccc(-c4ccccc4)nc32)ccc1NC(=O)C1CC2(CC(C(=O)O)C2)C1` (stereo not shown) [Compound I-126, 6-((6-(2-(2-aminopyridin-3-yl)-5-phenyl-3H-imidazo[4,5-b]pyridin-3-yl)-2-methylpyridin-3-yl)carbamoyl)spiro[3.3]heptane-2-carboxylic acid], for which the IC50 was below 20 µM in experiment [1] and at least 2 µM in experiment [2].
With `Nc1ncccc1-c1nc2ccc(-c3ccccc3)nc2n1-c1ccc(NC(=O)C23CC(C(=O)O)(C2)C3)nc1` [Compound I-7, 3-((5-(2-(2-aminopyridin-3-yl)-5-phenyl-3H-imidazo[4,5-b]pyridin-3-yl)pyridin-2-yl)carbamoyl)bicyclo[1.1.1]pentane-1-carboxylic acid], the IC50 is 20 to 80 µM in experiment [1] and at least 2 µM in experiment [2].
For the molecule `Nc1ncccc1-c1nc2ccc(-c3ccccc3)nc2n1-c1ccc(CN[C@H]2CC[C@H](C(=O)O)CC2)cc1` [Compound I-90, (1r,4r)-4-((4-(2-(2-aminopyridin-3-yl)-5-phenyl-3H-imidazo[4,5-b]pyridin-3-yl)benzyl)amino)cyclohexane-1-carboxylic acid], the IC50 was below 20 µM in experiment [1] and below 0.5 µM in experiment [2].
In the case of `Cc1nc(NC[C@@H]2CC[C@H](C(=O)O)C2)ccc1-n1c(-c2cccnc2N)nc2ccc(-c3ccccc3)nc21` [Compound I-226], the IC50 in experiment [1] is below 20 µM; in experiment [2], 0.5 to 2 µM.
Regarding `Cc1cc(C2(C)CN(CC3CC4(C3)CC(C(=O)O)C4)C2)ccc1-n1c(-c2cccnc2N)nc2ccc(-c3ccccc3)nc21` (stereo not shown) [Compound I-157], the IC50 in experiment [1] was below 20 µM; in experiment [2], 0.5 to 2 µM.
Turning to `Nc1ncccc1-c1nc2ccc(-n3cccn3)cc2n1-c1ccc(C2CN(C[C@H]3CC[C@H](C(=O)O)CC3)C2)cc1` [Compound I-72, (1r,4r)-4-((3-(4-(2-(2-aminopyridin-3-yl)-6-(1H-pyrazol-1-yl)-1H-benzo[d]imidazol-1-yl)phenyl)azetidin-1-yl)methyl)cyclohexane-1-carboxylic acid], the IC50 in experiment [1] was below 20 µM; in experiment [2], at least 2 µM.
Take `Nc1ncccc1-c1nc2ccc(-c3ccccc3)nc2n1-c1ccc(C2CCN(C[C@H]3CC[C@H](C(=O)O)CC3)CC2)cc1` [Compound I-190]: the IC50 in experiment [1] was below 20 µM; in experiment [2], 0.5 to 2 µM.
With `Cc1cc(C2CN(C[C@H]3CC[C@H](C(=O)O)CC3)C2)ccc1-n1c(-c2cccnc2N)nc2ccc(-c3ccccc3)nc21` [Compound I-139, (1r,4r)-4-((3-(4-(2-(2-aminopyridin-3-yl)-5-phenyl-3H-imidazo[4,5-b]pyridin-3-yl)-3-methylphenyl)azetidin-1-yl)methyl)cyclohexane-1-carboxylic acid], the 50% inhibitory concentration (IC50) is below 20 µM in experiment [1] and below 0.5 µM in experiment [2].
In the same order, the values of `CC1(c2ccc(-n3c(-c4cccnc4N)nc4ccc(-c5ccccc5)nc43)cc2)CN(CC2CC3(C2)CC(C(=O)O)C3)C1` (stereo not shown) [Compound I-155] are below 20 µM and below 0.5 µM.
Consider `Nc1ncccc1-c1nc2ccc(-c3ccccc3)nc2n1-c1ccc(CN2CCC(C(=O)O)CC2)c(F)c1` [Compound I-30, 1-(4-(2-(2-aminopyridin-3-yl)-5-phenyl-3H-imidazo[4,5-b]pyridin-3-yl)-2-fluorobenzyl)piperidine-4-carboxylic acid], for which the figures for the IC50 in experiment [1] and in experiment [2] were below 20 µM and at least 2 µM, respectively.
As to `CC(c1ccc(-n2c(-c3cccnc3N)nc3ccc(-c4ccccc4)nc32)cc1)N(C)[C@H]1CC[C@H](C(=O)O)CC1` (stereo partly shown) [Compound I-176], the results for the IC50 in experiment [1] and in experiment [2] were below 20 µM and 0.5 to 2 µM, respectively.
With `Cc1cc(C2CN(CC3CC4CC(C(=O)O)CC4C3)C2)ccc1-n1c(-c2cccnc2N)nc2ccc(-c3ccccc3F)nc21` (stereo not shown) [Compound I-201], the half-inhibitory concentration (IC50) in experiment [1] was below 20 µM; in experiment [2], below 0.5 µM.
The matching figures for `Cc1cc(C2CN(CC34CCC(C(=O)O)(CC3)CC4)C2)ccc1-n1c(-c2cccnc2N)nc2ccc(-c3ccccc3)nc21` [Compound I-206]: below 20 µM and 0.5 to 2 µM.
The matching figures for `Cc1cc(C2CN(CC3CC4CC(C(=O)O)CC4C3)C2)ccc1-n1c(-c2cccnc2N)nc2ccc(-c3ccccc3)nc21` (stereo not shown) [Compound I-207]: below 20 µM and 0.5 to 2 µM.
Take `Nc1ncccc1-c1nc2ccc(-c3ccccc3)nc2n1-c1ccc(CN2CC3(CC(C(=O)O)C3)C2)nc1` [Compound I-136, 2-((5-(2-(2-aminopyridin-3-yl)-5-phenyl-3H-imidazo[4,5-b]pyridin-3-yl)pyridin-2-yl)methyl)-2-azaspiro[3.3]heptane-6-carboxylic acid]: the figures for the IC50 in experiment [1] and in experiment [2] were below 20 µM and 0.5 to 2 µM, respectively.
With `CN(CCc1ccc(-n2c(-c3cccnc3N)nc3ccc(-c4ccccc4)nc32)cc1)[C@H]1CC[C@H](C(=O)O)CC1` [Compound I-158], the IC50 in experiment [1] is below 20 µM; in experiment [2], 0.5 to 2 µM.
Turning to `Nc1ncccc1-c1nc2ccc(-c3ccccc3)nc2n1-c1ccc(C2CN(CC3CC4CC(C(=O)O)CC4C3)C2)cc1` (stereo not shown) [Compound I-151], the values for the IC50 in experiment [1] and in experiment [2] were below 20 µM and below 0.5 µM, respectively.

The IC50 is the concentration that gives 50% inhibition.
